According to US6441169B1, “Pyrimidin-2-oxy-4-one and pyrimidin-2-oxy-4-thione derivatives” (Syngenta Crop Protection, Inc., priority 1997, dated 2002):

Experiments:
Puccinia graminis = type: in vivo; settings: wheat plants; a) spray 0.02% active ingredient, infected 24 hours later; b) soil drench 0.006% a.i., infected after 48 hours; evaluation 12 days after infection
[1] = test system: Colletotrichum lagenarium; experiment: B-2 Action against Colletotrichum lagenarium on cucumbers; type: in vivo; settings: cucumber plants; spray concentration 0.002%; infected 2 days later; evaluation 8 days after infection
Method: Action Against Colletotrichum lagenarium on Cucumbers After a growth period of 2 weeks, cucumber plants are sprayed with an aqueous spray mixture (concentration 0.002%) prepared from a wettable powder formulation of the test compound and infected 2 days later with a spore suspension (1.5×10^5 spores/ml) of the fungus and incubated for 36 hours at 23° C. and high humidity. Incubation is then continued at normal humidity and c. 22° C. Evaluation of the fungal infestation is made 8 days after infection.

Venturia inaegualis = experiment: B-3 Residual-protective action against Venturia inaegualis on apples; type: in vivo; settings: apple cuttings; spray 0.02% a.i.; infected 24 hours later; evaluation 12 days after infection
Method: Residual-protective Action Against Venturia inaegualis on Apples Apple cuttings with fresh shoots 10 to 20 cm long are sprayed to drip point with a spray mixture (0.02% a.i.) prepared from a wettable powder formulation of the test compound. The plants are infected 24 hours later with a conidia suspension of the fungus. The plants are then incubated for 5 days at 90 to 100% relative humidity and stood in a greenhouse for a further 10 days at 20 to 24° C. Evaluation of the fungal infestation is made 12 days after infection.

Compound | activity against Puccinia graminis (fungal infestation) (Puccinia graminis) | activity against Colletotrichum lagenarium (fungal infestation) [1] | activity against Venturia inaegualis (fungal infestation) (Venturia inaegualis) | melting point [°C]
CCCn1c(OCC2(C)CC2)nc2ccc(Br)cc2c1=O [Compound 1.7, 6-bromo-2-(1-methylcyclopropylmethoxy)-3-n-propyl-3Hquinazoline-4-one] | good to excellent activity | good to excellent activity | good activity | 81 to 85
CCCCn1c(OCC2(C)CC2)nc2ccc(Br)cc2c1=O [Compound 1.10, 6-bromo-2-(1-methylcyclopropylmethoxy)-3-n-buyl-3H-quinazoline-4-one] | good to excellent activity | good to excellent activity | good activity | 
CC1(COc2nc3ccc(Br)cc3c(=O)n2CC2CC2)CC1 [Compound 1.15] | good to excellent activity | good to excellent activity | good activity | 
CCCn1c(OCC2CC2C)nc2ccc(Br)cc2c1=O (centres unmarked) [Compound 1.22, 6-bromo-2-(2-methylcyclopropylmethoxy)-3-n-propyl-3H-quinazoline-4-one] | good to excellent activity | good to excellent activity | good activity | 49 to 51
CCCCn1c(OCC2CC2C)nc2ccc(Br)cc2c1=O (centres unmarked) [Compound 1.25, 6-bromo-2-(2-methylcyclopropylmethoxy)-3-n-buyl-3H-quinazoline-4-one] | good to excellent activity | good to excellent activity | good activity | 
CC1CC1COc1nc2ccc(Br)cc2c(=O)n1CC1CC1 (centres unmarked) [Compound 1.30] | good to excellent activity | good to excellent activity | good activity | 
CCCn1c(OCC2CC2(Cl)Cl)nc2ccc(Br)cc2c1=O (centres unmarked) [Compound 1.37] | good to excellent activity | good to excellent activity | good activity | 
CCCn1c(OCC2(C)CC2)nc2sc(Cl)cc2c1=O [Compound 3.6, 6-chloro-2-(1-methylcyclopropylmethoxy)-3-n-propyl-3H-thieno[2.3-d]pyrimidin-4-one] | good to excellent activity | good to excellent activity | good activity | 
CCCn1c(OCC2(C)CC2)nc2sc(Br)cc2c1=O [Compound 3.7, 6-bromo-2-(1-methylcyclopropylmethoxy)-3-n-propyl-3H-thieno[2.3-d]pyrimidin-4-one] | good to excellent activity | good to excellent activity | good activity | 
CCCn1c(OCC2CC2C)nc2sc(Cl)cc2c1=O (centres unmarked) [Compound 3.21, 6-chloro-2-(2-methylcyclopropylmethoxy)-3-n-propyl-3H-thieno[2.3-d]pyrimidin-4-one] | good to excellent activity | good to excellent activity | good activity | 
CCCn1c(OCC2CC2C)nc2sc(Br)cc2c1=O (centres unmarked) [Compound 3.22, 6-bromo-2-(2-methylcyclopropylmethoxy)-3-n-propyl-3H-thieno[2.3-d]pyrimidin-4-one] | good to excellent activity | good to excellent activity | good activity | 
CCCn1c(OCC2CC2(Cl)Cl)nc2sc(Cl)cc2c1=O (centres unmarked) [Compound 3.36, 6-chloro-2-(2,2-Dichlorocyclopropylmethoxy)-3-n-propyl-3H-thieno-[2.3-d]pyrimidin-4-one] | good to excellent activity | good to excellent activity | good activity | 
CCCn1c(OCC2CC2(F)F)nc2sc(Cl)cc2c1=O (centres unmarked) [Compound 3.51] | good to excellent activity | good to excellent activity | good activity | 
CCCn1c(OCC2CC2(F)F)nc2sc(Br)cc2c1=O (centres unmarked) [Compound 3.52] | good to excellent activity | good to excellent activity | good activity | 
CCCn1c(OCC2(C)CC2)nc2c(Br)csc2c1=O [Compound 4.8] | good to excellent activity | good to excellent activity | good activity | 
CCCn1c(OCC2CC2C)nc2c(Br)csc2c1=O (centres unmarked) [Compound 4.23] | good to excellent activity | good to excellent activity | good activity | 
